Measured values taken from the CheMixHub ionic liquid set.
“And” between values parts separate entries of the source, which are not always exact repeats. Equal values may be shown once.

Test: xn = mol fraction of the nth substance listed
Conditions: for electrical conductivity: 298.1 K

CCCC[n+]1ccn(C)c1.F[B-](F)(F)F + CN1CCCC1=O
viscosity, 101 kPa
Conditions | 298.15 K | 303.15 K | 308.15 K | 313.15 K | 323.15 K
x1 = 0.0115 | 2.02 mPa·s | 1.88 mPa·s | 1.52 mPa·s | 1.44 mPa·s | –
x2 = 0 | 101 mPa·s | 81 mPa·s and 84.2 mPa·s | 61.5 mPa·s | 51.5 mPa·s | 35.5 mPa·s
x2 = 0.043 | 86 mPa·s | 73.7 mPa·s | 58.1 mPa·s | – | –
x2 = 0.0879 | 76.3 mPa·s | 63.5 mPa·s | 51.2 mPa·s | 43.1 mPa·s | –
x2 = 0.0999 | – | 63.2 mPa·s | – | – | –
x2 = 0.2001 | – | 47.1 mPa·s | – | – | –
x2 = 0.2126 | 56.9 mPa·s | 46.1 mPa·s | 36.1 mPa·s | 32.5 mPa·s | –
x2 = 0.3028 | – | 34.7 mPa·s | – | – | –
x2 = 0.388 | 35.2 mPa·s | 25.2 mPa·s | 16.5 mPa·s | 14.6 mPa·s | –
x2 = 0.4 | – | 24.58 mPa·s | – | – | –
x2 = 0.5343 | 21.7 mPa·s | 14.8 mPa·s | 9.2 mPa·s | 6.53 mPa·s | –
x2 = 0.6577 | 13.1 mPa·s | 9.5 mPa·s | 6.81 mPa·s | 5.38 mPa·s | –
x2 = 0.7001 | – | – | – | – | 4.6 mPa·s
x2 = 0.7221 | 9.1 mPa·s | 7.8 mPa·s | 5.61 mPa·s | 5.01 mPa·s | –
x2 = 0.7612 | 7.67 mPa·s | 6.86 mPa·s | 6.01 mPa·s | 5.33 mPa·s | –
x2 = 0.8524 | 4.94 mPa·s | 4.45 mPa·s | 3.99 mPa·s | 3.58 mPa·s | –
x2 = 0.9005 | 3.6 mPa·s | 3.27 mPa·s | 2.95 mPa·s | 2.69 mPa·s | –
x2 = 0.9321 | 2.96 mPa·s | 2.88 mPa·s | 2.81 mPa·s | 2.09 mPa·s | –
x2 = 0.9743 | 2.3 mPa·s | 2.11 mPa·s | 1.93 mPa·s | 1.79 mPa·s | –

CCCCCCCCn1cc[n+](C)c1.O=S(=O)([N-]S(=O)(=O)C(F)(F)F)C(F)(F)F + CN(C)C=O
viscosity [mPa·s], 101 kPa
Conditions | 293.15 K | 303.15 K | 313.15 K | 323.15 K | 333.15 K | 343.15 K | 353.15 K | 363.15 K
x1 = 0.001926 | 0.959 | 0.858 | 0.771 | 0.702 | 0.641 | 0.59 | 0.543 | 0.502
x1 = 0.003917 | 0.982 | 0.876 | 0.787 | 0.715 | 0.653 | 0.598 | 0.552 | 0.51
x1 = 0.007695 | 1.019 | 0.907 | 0.818 | 0.738 | 0.672 | 0.617 | 0.568 | 0.524
x1 = 0.01197 | 1.059 | 0.942 | 0.85 | 0.762 | 0.694 | 0.635 | 0.584 | 0.539
x1 = 0.01518 | 1.096 | 0.971 | 0.877 | 0.784 | 0.713 | 0.653 | 0.598 | 0.552
x1 = 0.0193 | 1.136 | 1.006 | 0.909 | 0.81 | 0.734 | 0.669 | 0.614 | 0.579

CCCC[n+]1ccn(C)c1.F[B-](F)(F)F + CN(C)C=O
Conditions | viscosity [mPa·s]
293.15 K, 101 kPa, x1 = 0.08 | 3.1
298.15 K, 101 kPa, x1 = 0.74 | 42.5
298.15 K, 101 kPa, x1 = 0.83 | 62.4
298.15 K, 101 kPa, x1 = 0.94 | 88
298.15 K, 101.33 kPa, x2 = 0.1024 | 78
303.15 K, 100 kPa, x1 = 0.1008 | 1.497
303.15 K, 101 kPa, x1 = 0.94 | 74
308.15 K, 101 kPa, x1 = 0.43 | 5.71
313.15 K, 100 kPa, x1 = 0.8015 | 25.47
313.15 K, 100 kPa, x1 = 1 | 53.84
313.15 K, 101 kPa, x1 = 0.16 | 2.45
313.15 K, 101 kPa, x1 = 0.74 | 18.5
318.15 K, 101 kPa, x1 = 0.08 | 1.42
318.15 K, 101 kPa, x1 = 0.55 | 1.67
318.15 K, 101 kPa, x1 = 0.74 | 12
323.15 K, 100 kPa, x1 = 0.3022 | 2.993
323.15 K, 100 kPa, x1 = 0.7019 | 14.07
323.15 K, 101 kPa, x1 = 0.08 | 1.19
323.15 K, 101 kPa, x1 = 0.74 | 6.8
323.15 K, 101 kPa, x1 = 0.94 | 26.6
333.15 K, 100 kPa, x1 = 0.7019 | 10.75

NC(N)=[NH2+].O=S(=O)([O-])C(F)(F)F + CN(CCO)CCO + O
Conditions | viscosity [mPa·s]
323.2 K, 101 kPa, x2 = 0.1179, x3 = 0.8792 | 3.5

CCCC[n+]1ccn(C)c1.F[B-](F)(F)F + CNC(C)=O
Conditions | viscosity [mPa·s]
293.15 K, 101 kPa, x1 = 1 | 127.6

CCCC[n+]1ccn(C)c1.F[B-](F)(F)F + CO
101 kPa
Conditions | electrical conductivity [S/m]
x1 = 0.007405 | 0.598
x1 = 0.03422 | 1.35

101 kPa
Conditions | viscosity [mPa·s]
303.15 K, x2 = 0.6004 | 5.98
313.15 K, x2 = 0 | 53
313.15 K, x2 = 0.1003 | 36.1
313.15 K, x2 = 0.2047 | 24.26
313.15 K, x2 = 0.7997 | 1.778
313.15 K, x2 = 0.9001 | 0.993
323.15 K, x2 = 0.1003 | 25.42
323.15 K, x2 = 0.6004 | 4.07
333.15 K, x2 = 0.3996 | 7.23

CC1COC(=O)O1 (stereo not given) + COCCn1cc[n+](C)c1.N#C[S-]
101 kPa, x2 = 0
Conditions | viscosity [mPa·s]
288.15 K | 3.06
293.15 K | 2.75
298.15 K | 2.47
303.15 K | 2.25
308.15 K | 2.05
313.15 K | 1.88
318.15 K | 1.73
323.15 K | 1.6
328.15 K | 1.49
333.15 K | 1.39
338.15 K | 1.29
343.15 K | 1.21
